Entries after “also recorded” stand apart in the source; their conditions may differ.
What was measured:
LPS-induced lung injury = LPS-induced lung injury in mice; assay type: in vivo; details: for difference between HS-DKO and WT control mice in permeability and edema, LPS-induced injury: mice fed diet containing BHA
Protocol: Mice were anesthetized with ketamine/Xylazine (1 gm/kg and 100 mg/kg) and were allowed to inhaled 50 μl of LPS (1 mg/ml) placed as droplets on nares. Mice postures were maintained upright. Twenty-two hours after the induction of injury, 100 μl of FITC-labeled albumin (10 mg/ml) were injected via retro-orbital vein, and 24 hours after the induction of injury, mice were euthanized by exsanguination. To obtain bronchoalveolar lavage fluid, 1 ml of PBS was instilled into lungs and retrieved a via a tracheal catheter. In some experiments, mice were first fed with antioxidant BHA in food (Harlan Laboratory Services) for 7 days before the induction of lung injury.

HCl-induced lung injury = assay: HCl (acid aspiration)-induced lung injury in mice; assay type: in vivo; details: for pulmonary permeability, HCl-induced lung injury, treatment after injury: six hours after injury; for lung permeability, HCl-induced lung injury, preventative treatment: 1.5 mg/Kg intra-nasal 0.5 hour before HCl (0.05 M); for survival, HCl-induced lung injury, preventative treatment: 1.5 mg/Kg intra-nasal 0.5 hour before HCl (0.1 M); for HCl-induced acute lung injury / survival of mice: FIG. 15
Protocol: Mice were anaesthetized by ketamine/Xylazine ([…] and 100 mg/kg) and were suspended vertically from their incisors on a custom-made mount for orotracheal instillation. A 22 G catheter (Jelco, Smiths Medical) was guided 1.5 cm below the vocal cords, and 2.5 μl/g of 0.05 M HCl was instilled. Two hours after the induction of injury, 100 μl of FITC-labeled albumin (10 mg/ml) was injected via retro-orbital vein. Measurements were made 6 hours after the induction of injury. Control animals received saline instead of HCl in the same manner. In survival experiments, mice received 2.5 μl/g of 0.1 M HCl orotracheally and the observation period was extended up to 30 h.

[1] = tested on: bleomycin-induced lung fibrosis; assay: Bleomycin-induced lung fibrosis in mice (hydroxyproline levels); assay type: in vivo; details: 0.05 unit bleomycin once, one week later 60 mg/kg orally for five days
Description: A long detrimental effect of ALI is fibrosis. […] A bleomycin-induced lung fibrosis model was used in this study: Gan, et al., 2012, Nat. Cell Biol. 14:686.

mouse neutrophils = assay: ROS release assay in mouse neutrophils stimulated with fMLP; details: pretreated 10 min before fMLP (1 μM)
Protocol: Mice were euthanized in a CO2 chamber according to approved protocol, bone marrow was harvested from long bones of the mice, red blood cells (RBCs) were lysed with ACK buffer (155 mM NH4Cl, 10 mM KHCO3 and 127 μM EDTA), the cells were layered on a discontinuous Percoll gradient composed of 81%, 62% and 45% Percoll layers, and the cells were isolated from the interphase between 81% and 62% Percoll layers. Cells were washed in HBSS and used for various assays.
Neutrophils were suspended in a reaction mixture (0.25% BSA in HBSS with Ca^2+ and Mg^2+, 10 mM Isoluminol, 100 μ/ml HRP), distributed cells in the well of a 96 well plate, and stimulated with fMLP (10 μM). Isoluminol-enhanced chemiluminescence was recorded continuously in a plate reader (Perkin Elmer).

[2] = tested on: p47phox Ser-208 phosphorylation in neutrophils; assay: Western analysis of fMLP-stimulated neutrophils (phospho-Ser-208 p47phox, MAP3K3 protein); details: for p47phox phosphorylation at Ser-208 in neutrophils: pretreated 10 min before fMLP (1 μM), phospho-specific antibody
Protocol: One day after lung injury induction, lung permeability (FIG. 5D) and histology (FIG. 5E) were examined. […] The C57Bl mice were treated as above and their survival was analyzed by the Mantel-Cox Log-Rank test.

human neutrophils = assay: ROS production assay in human neutrophils stimulated with fMLP; details: fMLP (100 nM), 20 nM pazopanib
Protocol: One day after lung injury induction, lung permeability was determined. […] Six hours after lung injury induction, lung permeability (FIG. 12D) and histology (FIG. 12E) were examined. […] Data from one experiment are presented as mean±sem (Student t-Test, *p<0.05, n=5). […] Six hours after lung injury induction, lung permeability were examined. […] Data from one experiment are presented as mean±sem (Student t-Test, *p<0.05, n=5).

[3] = 1.5 mg/Kg intra-nasal 1 h after HCl (0.05 M)

COc1ccc(O)c(C(C)(C)C)c1 [BHA, butylated hydroxyanisole]
pazopanib's effect on lung permeability in mice fed BHA (LPS-induced lung injury; chew containing BHA, 60 mg/Kg/day pazopanib via gavage, LPS): abrogates pazopanib's effect on lung permeability | difference between HS-DKO and WT control mice in permeability and edema, LPS-induced injury (LPS-induced lung injury): abrogates the difference | difference between HS-DKO and WT control mice in permeability and edema, LPS-induced injury (LPS-induced lung injury; listed as butylated hydroxyanisole (BHA)): dissipated

NC1(c2ccc(-c3nc4ccn5c(=O)[nH]nc5c4cc3-c3ccccc3)cc2)CCC1 [MK-2206, 8-[4-(1-Aminocyclobutyl)phenyl]-9-phenyl-2H-[1,2,4]triazolo[3,4-f][1,6]naphthyridin-3-one]
effect of pazopanib on permeability in LPS-injured lungs in presence of AKT inhibitor (LPS-induced lung injury; MK-2206 10 mg/Kg with or without 60 mg/Kg/day pazopanib via gavage): abrogates the effect of pazopanib on permeability

Cc1ccc(NC(=O)c2ccc(CN3CCN(C)CC3)cc2)cc1Nc1nccc(-c2cccnc2)n1 [imatinib, 4-[(4-methylpiperazin-1-yl)methyl]-N-(4-methyl-3-{[4-(pyridin-3-yl)pyrimidin-2-yl]amino}phenyl)benzamide]
pulmonary permeability, HCl-induced lung injury, treatment after injury (HCl-induced lung injury; [3]): ineffective in reducing lung permeability; also recorded: does not attenuate HCl-induced lung injury | pulmonary permeability, HCl-induced lung injury, treatment after injury (HCl-induced lung injury; 1.5 mg/Kg intra-nasal 1 h after HCl (0.05 M), listed as Imatinib): trend of aggravation of the injury

Cc1ccc(Nc2nccc(N(C)c3ccc4c(C)n(C)nc4c3)n2)cc1S(N)(=O)=O [pazopanib, 5-((4-((2,3-dimethyl-2H-indazol-6-yl)(methyl)amino)pyrimidin-2-yl)amino)-2-methylbenzenesulfonamide]
lung fibrosis (levels of hydroxyproline) [1]: inhibits bleomycin-induced lung fibrosis | lung fibrosis (levels of hydroxyproline) ([1]; listed as Pazopanib): inhibit lung fibrosis | lung permeability, HCl-induced lung injury, preventative treatment (HCl-induced lung injury): pretreatment attenuates HCl-induced lung injury | lung permeability, HCl-induced lung injury, preventative treatment (HCl-induced lung injury; listed as Pazopanib): effective in reduction of permeability | survival, HCl-induced lung injury, preventative treatment (HCl-induced lung injury): pretreatment reduces mortality | survival, HCl-induced lung injury, preventative treatment (HCl-induced lung injury; listed as Pazopanib): extending survival | alveolar wall thickening and edema (histology), HCl-induced lung injury (HCl-induced lung injury; [3]): decreased | pulmonary permeability, HCl-induced lung injury, treatment after injury (HCl-induced lung injury; [3]): decreased pulmonary permeability; also recorded: attenuates HCl-induced lung injury | survival, HCl-induced lung injury, treatment after injury (HCl-induced lung injury; 2.5 mg/Kg intra-nasal 1 h after HCl (0.1 M)): significantly extended the survival; also recorded: pazopanib treatment reduces mortality | lung injury (permeability, survival) in mice lacking p47phox (HCl-induced lung injury; p47phox-deficient mice, FIGS. 16C & 16E): showed no effects; also recorded: abrogated the therapeutic effect of pazopanib | ROS production from WT mouse neutrophils (mouse neutrophils): led to increases in the ROS production; also recorded: increases ROS release from neutrophils | mortality, LPS-induced lung injury, therapeutic modality (LPS-induced lung injury; 1.5 mg/Kg intra-nasal 24 h after LPS): reduced mortality; also recorded: therapeutic treatment of pazopanib reduces mortality | mortality, LPS-induced lung injury, prophylactic modality (LPS-induced lung injury; 60 mg/Kg/day via gavage two days before injury): reduces mortality | lung injury in mice lacking MEKK2/3 (HS-DKO), LPS (LPS-induced lung injury; HS-DKO mice, 60 mg/Kg/day via gavage, FIGS. 12C-12D): no effects on lung injury | AKT phosphorylation in LPS-injured HS-DKO lungs (LPS-induced lung injury; HS-DKO mice, FIG. 13E): little effect on AKT phosphorylation | alveolar wall thickening and edema (histology), LPS-induced lung injury (LPS-induced lung injury; WT C57Bl mice, 60 mg/Kg/day via gavage from two days before LPS): reduced | pulmonary permeability, LPS-induced lung injury (LPS-induced lung injury; WT C57Bl mice, 60 mg/Kg/day via gavage from two days before LPS, one day after injury, 60 mg/kg/day): reduced pulmonary permeability; also recorded: attenuates LPS-induced lung injury | AKT phosphorylation in LPS-injured lungs (LPS-induced lung injury; WT mice, FIG. 13D): increased AKT phosphorylation | increase in MAP3K3 protein content induced by fMLP ([2]; neutrophils, fMLP): abrogated increase in MAP3K3 protein content | p47phox phosphorylation at Ser-208 in neutrophils [2]: inhibits phosphorylation of Ser-208 | p47phox phosphorylation at Ser-208 in neutrophils ([2]; listed as Pazopanib): inhibit | ROS production from human neutrophils (human neutrophils): increases ROS production from human neutrophils

Avastin: Avastin, a VEGF inhibitor; described in b209 as a neutralizing anti-VEGFR antibody (FIG. 15)
HCl-induced acute lung injury / survival of mice (HCl-induced lung injury): limited effects | HCl-induced acute lung injury / survival of mice (HCl-induced lung injury; listed as neutralizing anti-VEGFR antibody): no effect in survival

— patent US12544377B2, “Compounds, compositions and methods of treating or preventing acute lung injury” (Yale University, priority 2017, dated 2026)
